Laboratory results reported in ChEMBL document CHEMBL4665624, “Synthesis of 5-(4-(1H-phenanthro[9,10-d]imidazol-2-yl)benzylidene)thiazolidine-2,4-dione as promising DNA and serum albumin-binding agents and evaluation of antitumor activity” (Eur J Med Chem, 2019).

Legend:
CCRF-CEM = assay: Antitumor activity against human CCRF-CEM cells assessed as cell growth inhibition at 10 uM incubated for 48 hrs by sulforhodamine B assay; type: functional; details: read-out: GI
HL-60(TB) = assay: Antitumor activity against human HL-60(TB) cells assessed as cell growth inhibition at 10 uM incubated for 48 hrs by sulforhodamine B assay; type: functional; details: read-out: GI
K562 = assay: Antitumor activity against human K562 cells assessed as cell growth inhibition at 10 uM incubated for 48 hrs by sulforhodamine B assay; type: functional; details: read-out: GI
MOLT-4 = assay: Antitumor activity against human MOLT4 cells assessed as cell growth inhibition at 10 uM incubated for 48 hrs by sulforhodamine B assay; type: functional; details: read-out: GI
RPMI-8226 = assay: Antitumor activity against human RPMI8226 cells assessed as cell growth inhibition at 10 uM incubated for 48 hrs by sulforhodamine B assay; type: functional; details: read-out: GI
SR = assay: Antitumor activity against human SR cells assessed as cell growth inhibition at 10 uM incubated for 48 hrs by sulforhodamine B assay; type: functional; details: read-out: GI
EKVX = assay: Antitumor activity against human EKVX cells assessed as cell growth inhibition at 10 uM incubated for 48 hrs by sulforhodamine B assay; type: functional; details: read-out: GI
HOP-92 = assay: Antitumor activity against human HOP92 cells assessed as cell growth inhibition at 10 uM incubated for 48 hrs by sulforhodamine B assay; type: functional; details: read-out: GI
NCI-H226 = assay: Antitumor activity against human NCI-H226 assessed as cell growth inhibition at 10 uM incubated for 48 hrs by sulforhodamine B assay; type: functional; details: read-out: GI
NCI-H23 = assay: Antitumor activity against human NCI-H23 cells assessed as cell growth inhibition at 10 uM incubated for 48 hrs by sulforhodamine B assay; type: functional; details: read-out: GI
NCI-H460 = assay: Antitumor activity against human NCI-H460 assessed as cell growth inhibition at 10 uM incubated for 48 hrs by sulforhodamine B assay; type: functional; details: read-out: GI
NCI-H522 = assay: Antitumor activity against human NCI-H522 cells assessed as cell growth inhibition at 10 uM incubated for 48 hrs by sulforhodamine B assay; type: functional; details: read-out: GI
COLO 205 = assay: Antitumor activity against human COLO205 cells assessed as cell growth inhibition at 10 uM incubated for 48 hrs by sulforhodamine B assay; type: functional; details: read-out: GI
HCC 2998 = assay: Antitumor activity against human HCC2998 cells assessed as cell growth inhibition at 10 uM incubated for 48 hrs by sulforhodamine B assay; type: functional; details: read-out: GI
HCT-116 = assay: Antitumor activity against human HCT116 cells assessed as cell growth inhibition at 10 uM incubated for 48 hrs by sulforhodamine B assay; type: functional; details: read-out: GI
HCT-15 = assay: Antitumor activity against human HCT15 cells assessed as cell growth inhibition at 10 uM incubated for 48 hrs by sulforhodamine B assay; type: functional; details: read-out: GI
HT-29 = assay: Antitumor activity against human HT-29 cells assessed as cell growth inhibition at 10 uM incubated for 48 hrs by sulforhodamine B assay; type: functional; details: read-out: GI
KM12 = assay: Antitumor activity against human KM12 cells assessed as cell growth inhibition at 10 uM incubated for 48 hrs by sulforhodamine B assay; type: functional; details: read-out: GI
SF-268 = assay: Antitumor activity against human SF268 cells assessed as cell growth inhibition at 10 uM incubated for 48 hrs by sulforhodamine B assay; type: functional; details: read-out: GI
SF-295 = assay: Antitumor activity against human SF295 cells assessed as cell growth inhibition at 10 uM incubated for 48 hrs by sulforhodamine B assay; type: functional; details: read-out: GI
SNB-19 = assay: Antitumor activity against human SNB-19 cells assessed as cell growth inhibition at 10 uM incubated for 48 hrs by sulforhodamine B assay; type: functional; details: read-out: GI
SNB-75 = assay: Antitumor activity against human SNB-75 cells assessed as cell growth inhibition at 10 uM incubated for 48 hrs by sulforhodamine B assay; type: functional; details: read-out: GI
U-251 = assay: Antitumor activity against human U251 cells assessed as cell growth inhibition at 10 uM incubated for 48 hrs by sulforhodamine B assay; type: functional; details: read-out: GI
LOX IMVI = assay: Antitumor activity against human LOX IMVI cells assessed as cell growth inhibition at 10 uM incubated for 48 hrs by sulforhodamine B assay; type: functional; details: read-out: GI
Malme-3M = assay: Antitumor activity against human MALME-3M cells assessed as cell growth inhibition at 10 uM incubated for 48 hrs by sulforhodamine B assay; type: functional; details: read-out: GI
M14 = assay: Antitumor activity against human M14 cells assessed as cell growth inhibition at 10 uM incubated for 48 hrs by sulforhodamine B assay; type: functional; details: read-out: GI
MDA-MB-435 = assay: Antitumor activity against human MDA-MB-435 cells assessed as cell growth inhibition at 10 uM incubated for 48 hrs by sulforhodamine B assay; type: functional; details: read-out: GI
SK-MEL-28 = assay: Antitumor activity against human SK-MEL-28 cells assessed as cell growth inhibition at 10 uM incubated for 48 hrs by sulforhodamine B assay; type: functional; details: read-out: GI
UACC-62 = assay: Antitumor activity against human UACC-62 cells assessed as cell growth inhibition at 10 uM incubated for 48 hrs by sulforhodamine B assay; type: functional; details: read-out: GI
IGROV-1 = assay: Antitumor activity against human IGROV1 cells assessed as cell growth inhibition at 10 uM incubated for 48 hrs by sulforhodamine B assay; type: functional; details: read-out: GI
OVCAR-3 = assay: Antitumor activity against human OVCAR-3 cells assessed as cell growth inhibition at 10 uM incubated for 48 hrs by sulforhodamine B assay; type: functional; details: read-out: GI
OVCAR-4 = assay: Antitumor activity against human OVCAR-4 cells assessed as cell growth inhibition at 10 uM incubated for 48 hrs by sulforhodamine B assay; type: functional; details: read-out: GI
OVCAR-8 = assay: Antitumor activity against human OVCAR-8 cells assessed as cell growth inhibition at 10 uM incubated for 48 hrs by sulforhodamine B assay; type: functional; details: read-out: GI
NCI/ADR-RES = assay: Antitumor activity against human NCI/ADR-RES cells assessed as cell growth inhibition at 10 uM incubated for 48 hrs by sulforhodamine B assay; type: functional; details: read-out: GI
SK-OV-3 = assay: Antitumor activity against human SK-OV-3 cells assessed as cell growth inhibition at 10 uM incubated for 48 hrs by sulforhodamine B assay; type: functional; details: read-out: GI
786-0 = assay: Antitumor activity against human 786-0 cells assessed as cell growth inhibition at 10 uM incubated for 48 hrs by sulforhodamine B assay; type: functional; details: read-out: GI
A498 = assay: Antitumor activity against human A498 cells assessed as cell growth inhibition at 10 uM incubated for 48 hrs by sulforhodamine B assay; type: functional; details: read-out: GI
ACHN = assay: Antitumor activity against human ACHN cells assessed as cell growth inhibition at 10 uM incubated for 48 hrs by sulforhodamine B assay; type: functional; details: read-out: GI
RXF 393 = assay: Antitumor activity against human RXF 393 cells assessed as cell growth inhibition at 10 uM incubated for 48 hrs by sulforhodamine B assay; type: functional; details: read-out: GI
SN12C = assay: Antitumor activity against human SN12C cells assessed as cell growth inhibition at 10 uM incubated for 48 hrs by sulforhodamine B assay; type: functional; details: read-out: GI
UO-31 = assay: Antitumor activity against human UO-31 cells assessed as cell growth inhibition at 10 uM incubated for 48 hrs by sulforhodamine B assay; type: functional; details: read-out: GI
PC-3 = assay: Antitumor activity against human PC-3 cells assessed as cell growth inhibition at 10 uM incubated for 48 hrs by sulforhodamine B assay; type: functional; details: read-out: GI
MCF7 = assay: Antitumor activity against human MCF7 cells assessed as cell growth inhibition at 10 uM incubated for 48 hrs by sulforhodamine B assay; type: functional; details: read-out: GI
MDA-MB-231 = assay: Antitumor activity against human MDA-MB-231/ATCC cells assessed as cell growth inhibition at 10 uM incubated for 48 hrs by sulforhodamine B assay; type: functional; details: read-out: GI
Hs-578T = assay: Antitumor activity against human HS 578T cells assessed as cell growth inhibition at 10 uM incubated for 48 hrs by sulforhodamine B assay; type: functional; details: read-out: GI
BT-549 = assay: Antitumor activity against human BT-549 cells assessed as cell growth inhibition at 10 uM incubated for 48 hrs by sulforhodamine B assay; type: functional; details: read-out: GI
MDA-MB-468 = assay: Antitumor activity against human MDA-MB-468 cells assessed as cell growth inhibition at 10 uM incubated for 48 hrs by sulforhodamine B assay; type: functional; details: read-out: GI
SW-620 = assay: Antitumor activity against human SW620 cells assessed as cell growth inhibition at 10 uM incubated for 48 hrs by sulforhodamine B assay; details: SW-620, 48 h, read-out: GI

## c1cc2ccc3ccc(-c4nc5c6ccccc6c6ccccc6c5[nH]4)c4ccc(c1)c2c34
CCRF-CEM
  inhibition of growth at 10 µM: 10.3%
HL-60(TB)
  inhibition of growth at 10 µM: < 10%
K562
  inhibition of growth at 10 µM: < 10%
MOLT-4
  inhibition of growth at 10 µM: 26.8%
RPMI-8226
  inhibition of growth at 10 µM: 10.6%
SR
  inhibition of growth at 10 µM: 23.7%
EKVX
  inhibition of growth at 10 µM: < 10%
HOP-92
  inhibition of growth at 10 µM: 27.1%
NCI-H226
  inhibition of growth at 10 µM: 76.2%
NCI-H23
  inhibition of growth at 10 µM: < 10%
NCI-H460
  inhibition of growth at 10 µM: < 10%
NCI-H522
  inhibition of growth at 10 µM: 17.5%
COLO 205
  inhibition of growth at 10 µM: < 10%
HCC 2998
  inhibition of growth at 10 µM: < 10%
HCT-116
  inhibition of growth at 10 µM: 16.6%
HCT-15
  inhibition of growth at 10 µM: < 10%
HT-29
  inhibition of growth at 10 µM: < 10%
KM12
  inhibition of growth at 10 µM: 13.5%
SF-268
  inhibition of growth at 10 µM: 14.6%
SF-295
  inhibition of growth at 10 µM: < 10%
SNB-19
  inhibition of growth at 10 µM: < 10%
SNB-75
  inhibition of growth at 10 µM: < 10%
U-251
  inhibition of growth at 10 µM: < 10%
LOX IMVI
  inhibition of growth at 10 µM: 13.7%
Malme-3M
  inhibition of growth at 10 µM: < 10%
M14
  inhibition of growth at 10 µM: < 10%
MDA-MB-435
  inhibition of growth at 10 µM: < 10%
SK-MEL-28
  inhibition of growth at 10 µM: < 10%
UACC-62
  inhibition of growth at 10 µM: 38.4%
IGROV-1
  inhibition of growth at 10 µM: 13.2%
OVCAR-3
  inhibition of growth at 10 µM: < 10%
OVCAR-4
  inhibition of growth at 10 µM: < 10%
OVCAR-8
  inhibition of growth at 10 µM: < 10%
NCI/ADR-RES
  inhibition of growth at 10 µM: < 10%
SK-OV-3
  inhibition of growth at 10 µM: < 10%
786-0
  inhibition of growth at 10 µM: < 10%
A498
  inhibition of growth at 10 µM: 36.3%
ACHN
  inhibition of growth at 10 µM: 10.3%
RXF 393
  inhibition of growth at 10 µM: < 10%
SN12C
  inhibition of growth at 10 µM: < 10%
UO-31
  inhibition of growth at 10 µM: 37.2%
PC-3
  inhibition of growth at 10 µM: 21.2%
MCF7
  inhibition of growth at 10 µM: 23.1%
MDA-MB-231
  inhibition of growth at 10 µM: 23.2%
Hs-578T
  inhibition of growth at 10 µM: < 10%
BT-549
  inhibition of growth at 10 µM: < 10%
MDA-MB-468
  inhibition of growth at 10 µM: 78.1%
SW-620
  inhibition of growth at 10 µM: < 10%
